ChEMBL document CHEMBL1155947, “Discovery of a novel series of benzoic acid derivatives as potent and selective human beta3 adrenergic receptor agonists with good oral bioavailability. 3. Phenylethanolaminotetraline (PEAT) skeleton containing biphenyl or biphenyl ether moiety” (J Med Chem, 2008)

Experiments:
[1] = molecular target: Beta-3 adrenergic receptor (Homo sapiens, UniProt P13945); assay: Agonist activity at human cloned beta3 adrenergic receptor expressed in CHO cells assessed as cAMP accumulation; type: functional, cell-based
Sequence of Beta-3 adrenergic receptor (P13945 whole entry): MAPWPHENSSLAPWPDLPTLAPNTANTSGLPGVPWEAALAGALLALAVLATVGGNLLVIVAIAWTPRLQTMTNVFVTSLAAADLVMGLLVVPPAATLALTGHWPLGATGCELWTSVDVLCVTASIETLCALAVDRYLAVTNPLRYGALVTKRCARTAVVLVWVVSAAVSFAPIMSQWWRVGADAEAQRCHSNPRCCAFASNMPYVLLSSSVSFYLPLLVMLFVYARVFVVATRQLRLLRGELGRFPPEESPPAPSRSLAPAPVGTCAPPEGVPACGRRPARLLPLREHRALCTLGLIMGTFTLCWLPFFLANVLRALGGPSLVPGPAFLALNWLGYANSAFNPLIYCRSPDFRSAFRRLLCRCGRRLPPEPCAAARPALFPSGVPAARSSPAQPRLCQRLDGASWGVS

[2] = organism: Homo sapiens; assay: Ratio of EC50 for human cloned beta-1 adrenergic receptor to EC50 for human cloned beta3 adrenergic receptor
[3] = system: Canis familiaris; assay: Ratio of Cmax for drug to Cmax for 3-[((7S)-7-{[(2R)-2-(3-Chlorophenyl)-2-hydroxyethyl]amino}-5,6,7,8-tetrahydro-2-naphthalenyl)oxy]benzoic acid hydrochloride in dog at 0.1 or 0.20 mg/kg, po by cassette dosing assay; type: ADME, organism-based, Canis lupus familiaris; set-up: dose 0.2 mg/kg, route oral; details: in vivo, 0.2 mg/kg
[4] = system: Canis familiaris; assay: Ratio of AUC for drug to AUC for 3-[((7S)-7-{[(2R)-2-(3-Chlorophenyl)-2-hydroxyethyl]amino}-5,6,7,8-tetrahydro-2-naphthalenyl)oxy]benzoic acid hydrochloride in dog at 0.1 or 0.20 mg/kg, po by cassette dosing assay; type: ADME, organism-based, Canis lupus familiaris; set-up: dose 0.2 mg/kg, route oral; details: in vivo, 0.2 mg/kg
[5] = molecular target: Beta-1 adrenergic receptor (Homo sapiens, UniProt P08588)
Sequence of Beta-1 adrenergic receptor (P08588 whole entry): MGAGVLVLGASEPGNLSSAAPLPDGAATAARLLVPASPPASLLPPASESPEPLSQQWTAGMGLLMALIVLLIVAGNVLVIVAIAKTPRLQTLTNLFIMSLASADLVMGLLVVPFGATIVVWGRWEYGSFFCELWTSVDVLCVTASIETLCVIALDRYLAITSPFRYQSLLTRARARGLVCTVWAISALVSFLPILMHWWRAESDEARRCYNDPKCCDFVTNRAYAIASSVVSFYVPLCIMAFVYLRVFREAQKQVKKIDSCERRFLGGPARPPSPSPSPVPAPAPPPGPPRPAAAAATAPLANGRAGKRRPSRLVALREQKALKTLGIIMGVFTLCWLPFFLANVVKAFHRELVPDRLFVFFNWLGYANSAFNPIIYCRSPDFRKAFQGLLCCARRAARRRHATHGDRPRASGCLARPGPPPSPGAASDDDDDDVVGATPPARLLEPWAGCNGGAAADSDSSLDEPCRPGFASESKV
Description: Agonist activity at human cloned beta-1 adrenergic receptor expressed in CHO cells assessed as cAMP accumulation

[6] = molecular target: Beta-2 adrenergic receptor (Homo sapiens, UniProt P07550); assay: Agonist activity at human beta2 adrenergic receptor expressed in CHO cells assessed as cAMP accumulation; type: functional, cell-based
Sequence of Beta-2 adrenergic receptor (P07550 whole entry): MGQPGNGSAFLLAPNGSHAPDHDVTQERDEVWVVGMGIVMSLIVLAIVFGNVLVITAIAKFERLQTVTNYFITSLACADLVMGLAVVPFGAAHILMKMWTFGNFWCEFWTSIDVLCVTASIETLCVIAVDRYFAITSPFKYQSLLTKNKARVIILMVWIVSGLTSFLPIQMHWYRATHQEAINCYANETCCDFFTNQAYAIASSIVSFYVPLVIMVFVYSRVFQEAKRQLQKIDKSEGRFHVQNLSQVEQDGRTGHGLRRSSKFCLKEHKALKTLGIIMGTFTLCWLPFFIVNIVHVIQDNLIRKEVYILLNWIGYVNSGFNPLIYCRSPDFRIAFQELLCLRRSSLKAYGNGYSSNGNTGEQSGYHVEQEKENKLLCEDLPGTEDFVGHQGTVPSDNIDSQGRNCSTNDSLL

[7] = system: Canis familiaris; assay: Ratio of Cmax for drug to Cmax for 4-((7S)-7-{[(2R)-2-(3-Chlorophenyl)-2-hydroxyethyl]amino}-5,6,7,8-tetrahydro-2-naphthalenyl)benzoic acid hydrochloride in dog at 0.1 or 0.20 mg/kg, po by cassette dosing assay; type: ADME, organism-based, Canis lupus familiaris; set-up: dose 0.2 mg/kg, route oral; details: in vivo, 0.2 mg/kg
[8] = system: Canis familiaris; assay: Ratio of AUC for drug to AUC for 4-((7S)-7-{[(2R)-2-(3-Chlorophenyl)-2-hydroxyethyl]amino}-5,6,7,8-tetrahydro-2-naphthalenyl)benzoic acid hydrochloride in dog at 0.1 or 0.20 mg/kg, po by cassette dosing assay; type: ADME, organism-based, Canis lupus familiaris; set-up: dose 0.2 mg/kg, route oral; details: in vivo, 0.2 mg/kg

SMILES	EC50 [1] [nM]	Ratio EC50 [2]	Ratio [3]	Ratio AUC [4]	EC50 [5] [nM]	EC50 [6] [nM]	Ratio [7]	Ratio AUC [8]
Nc1cc(Oc2ccc3c(c2)C[C@@H](NC[C@H](O)c2cccc(Cl)c2)CC3)cc(C(=O)O)c1	3.2	150	0.26	0.2	480			
O=C(O)c1ccc(-c2ccc3c(c2)C[C@@H](NC[C@H](O)c2cccnc2)CC3)cc1	13	> 77			> 1000			
O=C(O)c1cc(Oc2ccc3c(c2)C[C@@H](NC[C@H](O)c2cccc(Cl)c2)CC3)ccc1Cl	16	> 62			> 1000			
O=C(O)COc1cccc(-c2ccc3c(c2)C[C@@H](NC[C@H](O)c2cccc(Cl)c2)CC3)c1	10	> 10			> 100			
COc1cc(Oc2ccc3c(c2)C[C@@H](NC[C@H](O)c2cccc(Cl)c2)CC3)cc(C(=O)O)c1	5.3	168			890	> 1000		
O=C(O)c1ccc(-c2ccc3c(c2)C[C@@H](NC[C@H](O)c2ccc(Cl)nc2)CC3)cc1	0.85	> 1260			200	> 1000	0.73	0.53
O=C(O)c1cc(NC2CCOCC2)cc(Oc2ccc3c(c2)C[C@@H](NC[C@H](O)c2cccc(Cl)c2)CC3)c1	1	340	0.06	0.02	340			
O=C(O)COc1ccc(Oc2ccc3c(c2)C[C@@H](NC[C@H](O)c2cccc(Cl)c2)CC3)cc1	24	> 4.2			> 100			
O=C(O)c1ccc(-c2ccc3c(c2)C[C@@H](NC[C@H](O)c2ccc(Cl)c(Cl)c2)CC3)cc1	33	> 30			> 1000			
O=C(O)c1ccc(-c2ccc3c(c2)C[C@@H](NC[C@H](O)c2ccccc2Cl)CC3)cc1	38	16.3			620			
O=C(O)c1cccnc1Oc1ccc2c(c1)C[C@@H](NC[C@H](O)c1cccc(Cl)c1)CC2	49	> 2			> 100			
O=C(O)c1ccc(-c2ccc3c(c2)C[C@@H](NC[C@H](O)c2cccc(Cl)c2)CCC3)cc1	> 100				> 100			
O=C(O)c1ccc(-c2ccc3c(c2)C[C@@H](NC[C@H](O)c2ccc(C(F)(F)F)cc2)CC3)cc1	3.5	221			775	> 1000		
O=C(O)c1cccc(-c2ccc3c(c2)C[C@@H](NC[C@H](O)c2cccc(Cl)c2)CC3)c1	29	> 3.4			> 100			
Cc1ccc([C@@H](O)CN[C@H]2CCc3ccc(-c4ccc(C(=O)O)cc4)cc3C2)cc1	0.79	> 1260			> 1000		1.06	0.77
O=C(O)c1ccc(-c2ccc3c(c2)C[C@@H](NC[C@H](O)c2ccc(Cl)cc2)CC3)cc1F	0.81	802			650			
O=C(O)COc1cccc(Oc2ccc3c(c2)C[C@@H](NC[C@H](O)c2cccc(Cl)c2)CC3)c1	22	> 4.5			> 100			
COc1ccc(Oc2ccc3c(c2)C[C@@H](NC[C@H](O)c2cccc(Cl)c2)CC3)cc1C(=O)O	6	> 166			> 1000	> 1000		
O=C(O)c1cccc(Oc2ccc3c(c2)C[C@@H](NC[C@H](O)c2ccc(Cl)nc2)CC3)c1	4.1	34			140			

SMILES	EC50 [1] [nM]	Ratio EC50 [2]	Ratio [3]	Ratio AUC [4]	EC50 [5] [nM]	EC50 [6] [nM]	Ratio [7]	Ratio AUC [8]
CCCNc1cc(Oc2ccc3c(c2)C[C@@H](NC[C@H](O)c2cccc(Cl)c2)CC3)cc(C(=O)O)c1	0.77	224			173			
O=C(O)c1cc(NC2CCCCC2)cc(Oc2ccc3c(c2)C[C@@H](NC[C@H](O)c2cccc(Cl)c2)CC3)c1	0.78	88			69			
CC(=O)Nc1cc(Oc2ccc3c(c2)C[C@@H](NC[C@H](O)c2cccc(Cl)c2)CC3)cc(C(=O)O)c1	1.3	277	0.1	0.06	360			
O=C(O)c1ccc(Oc2ccc3c(c2)C[C@@H](NC[C@H](O)c2cccc(Cl)c2)CCC3)cc1	> 100				> 100			
O=C(O)c1ccc(-c2ccc3c(c2)C[C@@H](NC[C@H](O)c2cccc(Cl)c2)CC3)s1	2.4	> 417			> 1000			
COc1cc(-c2ccc3c(c2)C[C@@H](NC[C@H](O)c2ccc(Cl)cc2)CC3)ccc1C(=O)O	0.78	> 1280			> 1000		0.62	0.53
CN(C)c1cc(Oc2ccc3c(c2)C[C@@H](NC[C@H](O)c2ccc(Cl)nc2)CC3)cc(C(=O)O)c1	1.8	155			270			
O=C(O)c1cccc(Oc2ccc3c(c2)C[C@@H](NC[C@H](O)c2ccc(Cl)cc2)CC3)c1	4.8	69			330			
N#Cc1ccc([C@@H](O)CN[C@H]2CCc3ccc(-c4ccc(C(=O)O)cc4)cc3C2)cc1	28	> 36			> 1000			
O=C(O)c1ccc(-c2ccc3c(c2)C[C@@H](NC[C@H](O)c2cccc(Cl)c2)CC3)nc1	9.6	51			490			
O=C(O)c1ccc(Oc2ccc3c(c2)C[C@@H](NC[C@H](O)c2cccc(Cl)c2)CC3)s1	5.7	117			670	> 1000		
O=C(O)c1cccc(Oc2ccc3c(c2)C[C@@H](NC[C@H](O)c2cccnc2)CC3)c1	20	> 5	0.5	0.32	> 100			
Cc1cc(C(=O)O)ccc1-c1ccc2c(c1)C[C@@H](NC[C@H](O)c1ccc(Cl)cc1)CC2	2	400			800		0.72	0.64
O=C(O)c1ccc(-c2ccc3c(c2)C[C@@H](NC[C@H](O)c2ccc(Cl)cc2)CC3)c(F)c1	1.4	700			980		1.13	1.01
O=C(O)c1ccc(Oc2ccc3c(c2)C[C@@H](NC[C@H](O)c2cccc(Cl)c2)CC3)cc1	37	> 2.7			> 100			
Cc1cc(-c2ccc3c(c2)C[C@@H](NC[C@H](O)c2ccc(Cl)cc2)CC3)ccc1C(=O)O	1.8	458			825			
CC(C)Oc1cc(-c2ccc3c(c2)C[C@@H](NC[C@H](O)c2ccc(Cl)cc2)CC3)ccc1C(=O)O	0.7	443			310			
Cc1ccc(Oc2ccc3c(c2)C[C@@H](NC[C@H](O)c2cccc(Cl)c2)CC3)cc1C(=O)O	9	> 111			> 1000			
